Experimental data from US8389523B2, “Substituted quinoxaline and an agrochemical composition thereof” (Kumiai Chemical Industry Co., Ltd., priority 2007, dated 2013).

What was measured:
Type in all cases: in vivo
Parameters in all cases: scale not given here
[1] = system: Echinochloa oryzicola Vasing; test: Herbicidal effects in paddy field soil treatment (Test Example 1); conditions: for Herbicidal effects index, Echinochloa oryzicola Vasing: paddy field soil treatment, 1000 g of the active ingredient per hectare, wettable powder added dropwise on water surface, 21st day after treatment
Outline: (§1)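 Weed seeds were sown into puddled, leveled paddy soil in pots and flooded to 3 cm water depth. One day later the diluted wettable powder formulation was dropped onto the water surface at 1000 g active ingredient per hectare. Herbicidal effect was scored on day 21 after greenhouse growth.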

[2] = system: Scirpus juncoides Roxb. var. ohwianus. T. Koyama; test: as above; conditions: for Herbicidal effects index, Scirpus juncoides Roxb. var. ohwianus. T. Koyama: paddy field soil treatment, 1000 g of the active ingredient per hectare, wettable powder added dropwise on water surface, 21st day after treatment
Outline: as §1

[3] = system: Monochoria vaginalis (Burm. f.) Presl var. plantaginea (Roxb.) Solms-Laub.; test: as above; conditions: for Herbicidal effects index, Monochoria vaginalis (Burm. f.) Presl var. plantaginea (Roxb.) Solms-Laub.: paddy field soil treatment, 1000 g of the active ingredient per hectare, wettable powder added dropwise on water surface, 21st day after treatment
Outline: as §1

[4] = system: Abutilon theophrasti medicus; test: Herbicidal effects in upland field foliar treatment (Test Example 3); conditions: criteria of Table 138; for herbicidal effects on Abutilon theophrasti medicus: 1000 g of the active ingredient per hectare, 14th day after the treatment, wettable powder; for herbicidal effect (index) on Abutilon theophrasti medicus: 1000 g active ingredient per hectare, 14th day after treatment
Outline: (§2)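 Weeds were sown in upland field soil and grown two weeks in a greenhouse before a foliar spray over the whole plant. Wettable powder was diluted in water and applied at 1000 L/ha, delivering 1000 g active ingredient/ha. Herbicidal effect was scored against set rating criteria 14 days after treatment.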

Amaranthus viridis L. [5] = test: as above; conditions: criteria of Table 138; for herbicidal effects on Amaranthus viridis L.: 1000 g of the active ingredient per hectare, 14th day after the treatment, wettable powder; for herbicidal effect (index) on Amaranthus viridis L.: 1000 g active ingredient per hectare, 14th day after treatment
Outline: as §2

[6] = system: Echinochloa crus-galli (L.) P. Beauv. var. crus-galli; test: as above; conditions: criteria of Table 138; for herbicidal effects on Echinochloa crus-galli (L.) P. Beauv. var. crus-galli: 1000 g of the active ingredient per hectare, 14th day after the treatment, wettable powder; for herbicidal effect (index) on Echinochloa crus-galli (L.) P. Beauv. var. crus-galli: 1000 g active ingredient per hectare, 14th day after treatment
Outline: as §2

[7] = system: Abutilon theophrasti medicus; test: Herbicidal effects in upland field soil treatment (Test Example 2); conditions: 1000 g active ingredient per hectare, 21st day after treatment, criteria of Table 138
Outline: (§3)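 Pre-emergence soil application: seeds sown in upland field soil, covered, then wettable powder diluted in water sprayed on the soil surface at 1000 g active ingredient/ha in 1000 L/ha. Plants grown in greenhouse; herbicidal effect scored on a rating scale 21 days after treatment.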

Amaranthus viridis L. [8] = test: as above; conditions: 1000 g active ingredient per hectare, 21st day after treatment, criteria of Table 138
Outline: as §3

[9] = paddy field soil treatment (Test Example 1), criteria of Table 138

SMILES | Herbicidal effects index, Echinochloa oryzicola Vasing [1] | Herbicidal effects index, Scirpus juncoides Roxb. var. ohwianus. T. Koyama [2] | Herbicidal effects index, Monochoria vaginalis (Burm. f.) Presl var. plantaginea (Roxb.) Solms-Laub. [3] | herbicidal effects on Abutilon theophrasti medicus [4] | herbicidal effects on Amaranthus viridis L. (Amaranthus viridis L. [5]) | herbicidal effects on Echinochloa crus-galli (L.) P. Beauv. var. crus-galli [6] | herbicidal effect (index) on Abutilon theophrasti medicus [7] | herbicidal effect (index) on Amaranthus viridis L. (Amaranthus viridis L. [8]) | herbicidal effect (index) on Abutilon theophrasti medicus [4] | herbicidal effect (index) on Amaranthus viridis L. (Amaranthus viridis L. [5]) | herbicidal effect (index) on Echinochloa crus-galli (L.) P. Beauv. var. crus-galli [6] | herbicidal effect (index) on Echinochloa oryzicola Vasing [1, 9] | herbicidal effect (index) on Scirpus juncoides Roxb. var. ohwianus. T. Koyama [2, 9] | herbicidal effect (index) on Monochoria vaginalis (Burm. f.) Presl var. plantaginea (Roxb.) Solms-Laub. [3, 9]
CCc1cccc(-n2c(=O)c(C(=O)C3=C(O)CCCC3=O)nc3cccnc32)c1 [IV-23] | 5 | 5 | 5 | 4 | 5 | 5 | 5 | 5 | – | – | – | – | – | –
O=C1CCCC(O)=C1C(=O)c1nc2ccccc2n(-c2ccc3c(c2)CCO3)c1=O [I-201] | 5 | 5 | 5 | – | – | – | 4 | 5 | 4 | 5 | 5 | – | – | –
CCOc1cc(-n2c(=O)c(C(=O)C3=C(O)CCCC3=O)nc3ccccc32)ccc1OC [II-217] | 4 | 5 | 5 | 5 | 5 | 4 | 5 | 5 | – | – | – | – | – | –
O=C1CCCC(O)=C1C(=O)c1nc2ccccc2n(-c2ccc3c(c2)OCO3)c1=O [I-202, 1-(benzo[d][1,3]dioxol-5-yl)-3-(2-hydroxy-6-oxo-1-cyclohexenecarbonyl)-quinoxalin-2(1H)-one] | 5 | 5 | 5 | – | – | – | 4 | 5 | 5 | 5 | 4 | – | – | –
COc1ccccc1Cn1c(=O)c(C(=O)C2=C(O)CCCC2=O)nc2cccnc21 [III-120] | 5 | 5 | 5 | 5 | 5 | 5 | 4 | 5 | – | – | – | – | – | –
O=C1CCCC(O)=C1C(=O)c1nc2cccnc2n(-c2ccc(C3CC3)cc2)c1=O [IV-33] | 5 | 5 | 5 | 5 | 5 | 5 | 5 | 5 | – | – | – | – | – | –
CSc1ccc(-n2c(=O)c(C(=O)C3=C(O)CCCC3=O)nc3ccccc32)cc1 [II-122] | 5 | 5 | 5 | 4 | 5 | 5 | 5 | 5 | – | – | – | – | – | –
Cn1c(=O)c(C(=O)C2=C(O)CCCC2=O)nc2cc(Cl)ccc21 [I-225] | 5 | 4 | 5 | – | – | – | 5 | 5 | 5 | 5 | 4 | – | – | –
O=C1CCCC(O)=C1C(=O)c1nc2ccccc2n(CC(F)(F)F)c1=O [I-40] | 5 | 5 | 5 | – | – | – | 5 | 5 | 5 | 5 | 5 | – | – | –
Cn1c(=O)c(C(=O)C2=C(O)C3CCC(C3)C2=O)nc2cccnc21 (stereo not shown) [III-5] | 5 | 5 | 5 | 5 | 5 | 5 | 5 | 4 | – | – | – | – | – | –
O=C1CCCC(O)=C1C(=O)c1nc2cccnc2n(-c2cccc(OC(F)F)c2)c1=O [IV-90] | – | – | – | 5 | 5 | 5 | 5 | 5 | – | – | – | 5 | 5 | 5
O=C1CCCC(O)=C1C(=O)c1nc2ccccc2n(-c2cccc(F)c2)c1=O [II-7] | 5 | 5 | 5 | – | – | – | 5 | 5 | 5 | 5 | 5 | – | – | –
Cc1cnc(-n2c(=O)c(C(=O)C3=C(O)CCCC3=O)nc3ccccc32)cn1 [I-373] | 5 | 5 | 5 | – | – | – | 5 | 5 | 5 | 5 | 5 | – | – | –
COc1ccc(-n2c(=O)c(C(=O)C3=C(O)CCCC3=O)nc3cccc(F)c32)cc1 [II-189] | 5 | 5 | 5 | 5 | 5 | 5 | 5 | 5 | – | – | – | – | – | –
